From ChEMBL document CHEMBL1152282, “SAR profiles of spirocyclic nicotinamide derived selective HDAC1/HDAC2 inhibitors (SHI-1:2)” (Bioorg Med Chem Lett, 2008)
≈ marks a conversion by molar mass, not a printed value.

Experiments:
[1] = Half life in rat at 2.0 mg/kg, iv; type: ADME, organism-based; parameters: dose 2 mg/kg, route intravenous; conditions: in vivo
[2] = Plasma clearance in dog at 0.90 mg/kg, iv; type: ADME, organism-based, Canis lupus familiaris; parameters: dose 0.9 mg/kg, route intravenous; conditions: 0.9 mg/kg
[3] = Half life in dog at 0.90 mg/kg, iv; type: ADME, organism-based, Canis lupus familiaris; parameters: dose 0.9 mg/kg, route intravenous; conditions: in vivo, 0.9 mg/kg
[4] = Oral bioavailability in rat at 4.0 mg/kg; type: ADME, organism-based; conditions: in vivo
[5] = Cmax in mouse at 150 mg/kg, po; type: ADME, organism-based; parameters: dose 150 mg/kg, route oral; conditions: in vivo
[6] = AUC in mouse at 150 mg/kg, po; type: ADME, organism-based; parameters: dose 150 mg/kg, route oral; conditions: plasma
[7] = Plasma clearance in rat at 2.0 mg/kg, iv; type: ADME, organism-based; parameters: dose 2 mg/kg, route intravenous
[8] = Volume of distribution at steady state in rat at 2.0 mg/kg, iv; type: ADME, organism-based; parameters: dose 2 mg/kg, route intravenous; conditions: in vivo, read-out: Vdss
[9] = Plasma clearance in dog at 0.50 mg/kg, iv; type: ADME, organism-based, Canis lupus familiaris; parameters: dose 0.5 mg/kg, route intravenous; conditions: 0.5 mg/kg
[10] = Volume of distribution at steady state in dog at 0.50 mg/kg, iv; type: ADME, organism-based, Canis lupus familiaris; parameters: dose 0.5 mg/kg, route intravenous; conditions: in vivo, 0.5 mg/kg, read-out: Vdss
[11] = Half life in dog at 0.50 mg/kg, iv; type: ADME, organism-based, Canis lupus familiaris; parameters: dose 0.5 mg/kg, route intravenous; conditions: in vivo, 0.5 mg/kg
[12] = Oral bioavailability in dog at 1.0 mg/kg; type: ADME, organism-based, Canis lupus familiaris; conditions: in vivo
[13] = Solubility of the compound; type: physicochemical
[14] = Distribution coefficient, log D of the compound; type: physicochemical; conditions: octanol/water
[15] = Plasma concentration in human HCT116 cells xenografted CD1 mouse at 15 mg/kg, ip after 6 hrs; type: ADME, organism-based, HCT-116; parameters: dose 15 mg/kg, route intraperitoneal
[16] = Plasma concentration in human HCT116 cells xenografted CD1 mouse at 15 mg/kg, ip after 24 hrs; type: ADME, organism-based, HCT-116; parameters: dose 15 mg/kg, route intraperitoneal
[17] = Plasma concentration in human HCT116 cells xenografted CD1 mouse at 15 mg/kg, ip after 48 hrs; type: ADME, organism-based, HCT-116; parameters: dose 15 mg/kg, route intraperitoneal
[18] = Plasma concentration in human HCT116 cells xenografted CD1 mouse at 15 mg/kg, ip after 72 hrs; type: ADME, organism-based, HCT-116; parameters: dose 15 mg/kg, route intraperitoneal
[19] = Plasma concentration in human HCT116 cells xenografted CD1 mouse at 150 mg/kg, po after 6 hrs; type: ADME, organism-based, HCT-116; parameters: dose 150 mg/kg, route oral
[20] = Plasma concentration in human HCT116 cells xenografted CD1 mouse at 150 mg/kg, po after 24 hrs; type: ADME, organism-based, HCT-116; parameters: dose 150 mg/kg, route oral
[21] = Plasma concentration in human HCT116 cells xenografted CD1 mouse at 300 mg/kg, po after 6 hrs; type: ADME, organism-based, HCT-116; parameters: dose 300 mg/kg, route oral
[22] = Plasma concentration in human HCT116 cells xenografted CD1 mouse at 300 mg/kg, po after 24 hrs; type: ADME, organism-based, HCT-116; parameters: dose 300 mg/kg, route oral
Canis familiaris [23] = assay: Plasma concentration in CV dog at 10 mg/kg, iv; type: ADME, organism-based, Canis lupus familiaris; parameters: dose 10 mg/kg, route intravenous; conditions: in vivo
Canis familiaris [24] = assay: Plasma concentration in CV dog at 3 mg/kg, iv; type: ADME, organism-based, Canis lupus familiaris; parameters: dose 3 mg/kg, route intravenous; conditions: in vivo

SMILES | half-life [1] [h] | bioavailability [4] [%] | Cmax [5] [µM] | AUC [6] [µM·h] | clearance [7] [mL/min/kg] | Vd [8] [L/kg] | clearance [9] [mL/min/kg] | Vd [10] [L/kg] | half-life [11] [h] | bioavailability [12] [%] | further results
C[C@H]1CN(c2ccc(C(=O)Nc3ccccc3N)cn2)CCN1C(=O)OCc1ccccc1 | 0.93 | 37 | – | – | – | – | – | – | – | – | clearance [2]: 7.4 mL/min/kg; half-life [3]: 5.6 h
Nc1ccc(-c2cccs2)cc1NC(=O)c1ccc(N2CCC3(CCNC3=O)CC2)nc1 | – | – | 34 | 88 | – | – | – | – | – | – | –
Nc1ccc(-c2cccs2)cc1NC(=O)c1ccc(N2CCC3(CC2)CNC(=O)N3)nc1 | – | – | 2 | 10 | – | – | – | – | – | – | –
Nc1ccc(-c2cccs2)cc1NC(=O)c1ccc(N2CCC3(CC2)COC(=O)N3)nc1 | 2.6 | 13 | 6 | 14 | 7.4 | 0.47 | 9.8 | 2.3 | 6.8 | 18 | –
Nc1ccc(-c2cccs2)cc1NC(=O)c1ccc(N2CCC3(CCNC3)CC2)nc1 | 6.2 | 23 | – | – | 31 | 8.6 | 5.9 | 3.3 | 6.7 | 100 | solubility [13]: 186 µM (≈ 80.6 µg/mL); logD [14]: 1.45; concentration at 6 h [15]: 3.4 µM; concentration at 24 h [16]: 0.32 µM; concentration at 48 h [17]: 0.05 µM; concentration at 72 h [18]: 0.03 µM; concentration at 6 h [19]: 11 µM; concentration at 24 h [20]: 0.22 µM; concentration at 6 h [21]: 21 µM; concentration at 24 h [22]: 0.78 µM; concentration (Canis familiaris [23]): 30 µM; concentration (Canis familiaris [24]): 6 µM
